Test results reported in ChEMBL document CHEMBL3867472, “Discovery of benzofuran propanoic acid GPR120 agonists: From uHTS hit to mechanism-based pharmacodynamic effects” (Bioorg Med Chem Lett, 2016).

Assays:
[1] = target: T1, Free fatty acid receptor 4 (Homo sapiens, UniProt Q5NUL3); test: Agonist activity at human GPR120 expressed in CHOK1 cells measured after 60 mins by IP1-HTRF assay; format: functional, cell-based, CHO-K1
T1 sequence (Q5NUL3 whole entry): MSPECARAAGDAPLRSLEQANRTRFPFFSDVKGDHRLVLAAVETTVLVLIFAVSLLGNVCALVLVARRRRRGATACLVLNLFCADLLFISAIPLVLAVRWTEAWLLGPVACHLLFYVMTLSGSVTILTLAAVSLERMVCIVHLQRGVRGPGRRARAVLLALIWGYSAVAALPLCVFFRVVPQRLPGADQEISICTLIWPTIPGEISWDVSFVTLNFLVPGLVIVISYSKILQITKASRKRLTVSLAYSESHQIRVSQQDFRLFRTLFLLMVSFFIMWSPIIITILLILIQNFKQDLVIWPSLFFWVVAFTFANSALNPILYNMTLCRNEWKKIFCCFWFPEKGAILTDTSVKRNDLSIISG

[2] = target: T2, Free fatty acid receptor 4 (Homo sapiens) (UniProt Q5NUL3); test: Agonist activity at human GPR120 expressed in CHOK1 cells measured after 60 mins by IP1-HTRF assay relative to basal level; format: functional, cell-based; design: concentration or dose not given beside the values; conditions: CHO-K1
T2 sequence (whole entry): T1 sequence (Q5NUL3 whole entry)

[3] = target: T3, Free fatty acid receptor 4 (Mus musculus, UniProt Q7TMA4); test: Agonist activity at mouse GPR120 expressed in CHOK1 cells measured after 60 mins by IP1-HTRF assay; format: functional, cell-based, CHO-K1
T3 sequence (Q7TMA4 whole entry): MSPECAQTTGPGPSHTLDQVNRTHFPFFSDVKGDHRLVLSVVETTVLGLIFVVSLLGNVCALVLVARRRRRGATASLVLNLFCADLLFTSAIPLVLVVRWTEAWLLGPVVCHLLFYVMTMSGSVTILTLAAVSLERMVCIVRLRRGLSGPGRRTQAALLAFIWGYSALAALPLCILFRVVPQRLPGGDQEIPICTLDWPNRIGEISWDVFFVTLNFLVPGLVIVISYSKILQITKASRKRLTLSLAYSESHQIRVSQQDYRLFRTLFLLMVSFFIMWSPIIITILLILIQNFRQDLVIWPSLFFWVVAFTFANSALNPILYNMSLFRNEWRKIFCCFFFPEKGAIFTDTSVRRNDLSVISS

[4] = target: T4, Free fatty acid receptor 4 (Mus musculus) (UniProt Q7TMA4); test: Agonist activity at mouse GPR120 expressed in CHOK1 cells measured after 60 mins by IP1-HTRF assay relative to basal level; format: functional, cell-based; design: concentration or dose not given beside the values; conditions: CHO-K1
T4 sequence (whole entry): T3 sequence (Q7TMA4 whole entry)

[5] = target: T5, Free fatty acid receptor 1 (Homo sapiens, UniProt O14842); test: Agonist activity at human GPR40 measured after 60 mins by IP1-HTRF assay; format: functional
T5 sequence (O14842 whole entry): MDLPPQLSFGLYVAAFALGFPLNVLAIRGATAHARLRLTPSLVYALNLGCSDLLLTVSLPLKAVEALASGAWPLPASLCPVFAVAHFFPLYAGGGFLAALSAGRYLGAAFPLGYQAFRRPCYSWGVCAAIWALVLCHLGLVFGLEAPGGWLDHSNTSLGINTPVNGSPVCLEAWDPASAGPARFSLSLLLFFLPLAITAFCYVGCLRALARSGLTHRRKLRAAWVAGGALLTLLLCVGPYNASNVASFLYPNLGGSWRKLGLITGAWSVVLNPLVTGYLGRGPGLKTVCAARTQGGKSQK

[6] = target: T5, Free fatty acid receptor 1; test: Agonist activity at human GPR40 measured after 60 mins by IP1-HTRF assay relative to basal level; format: functional; design: concentration or dose not given beside the values
[7] = target: Voltage-dependent L-type calcium channel subunit alpha-1C (Homo sapiens, UniProt Q13936); test: Inhibition of Cav1.2 (unknown origin)
[8] = target: Sodium channel protein type 5 subunit alpha (Homo sapiens, UniProt Q14524); test: Inhibition of Nav1.5 (unknown origin)
Sodium channel protein type 5 subunit alpha, sequence (Q14524 whole entry): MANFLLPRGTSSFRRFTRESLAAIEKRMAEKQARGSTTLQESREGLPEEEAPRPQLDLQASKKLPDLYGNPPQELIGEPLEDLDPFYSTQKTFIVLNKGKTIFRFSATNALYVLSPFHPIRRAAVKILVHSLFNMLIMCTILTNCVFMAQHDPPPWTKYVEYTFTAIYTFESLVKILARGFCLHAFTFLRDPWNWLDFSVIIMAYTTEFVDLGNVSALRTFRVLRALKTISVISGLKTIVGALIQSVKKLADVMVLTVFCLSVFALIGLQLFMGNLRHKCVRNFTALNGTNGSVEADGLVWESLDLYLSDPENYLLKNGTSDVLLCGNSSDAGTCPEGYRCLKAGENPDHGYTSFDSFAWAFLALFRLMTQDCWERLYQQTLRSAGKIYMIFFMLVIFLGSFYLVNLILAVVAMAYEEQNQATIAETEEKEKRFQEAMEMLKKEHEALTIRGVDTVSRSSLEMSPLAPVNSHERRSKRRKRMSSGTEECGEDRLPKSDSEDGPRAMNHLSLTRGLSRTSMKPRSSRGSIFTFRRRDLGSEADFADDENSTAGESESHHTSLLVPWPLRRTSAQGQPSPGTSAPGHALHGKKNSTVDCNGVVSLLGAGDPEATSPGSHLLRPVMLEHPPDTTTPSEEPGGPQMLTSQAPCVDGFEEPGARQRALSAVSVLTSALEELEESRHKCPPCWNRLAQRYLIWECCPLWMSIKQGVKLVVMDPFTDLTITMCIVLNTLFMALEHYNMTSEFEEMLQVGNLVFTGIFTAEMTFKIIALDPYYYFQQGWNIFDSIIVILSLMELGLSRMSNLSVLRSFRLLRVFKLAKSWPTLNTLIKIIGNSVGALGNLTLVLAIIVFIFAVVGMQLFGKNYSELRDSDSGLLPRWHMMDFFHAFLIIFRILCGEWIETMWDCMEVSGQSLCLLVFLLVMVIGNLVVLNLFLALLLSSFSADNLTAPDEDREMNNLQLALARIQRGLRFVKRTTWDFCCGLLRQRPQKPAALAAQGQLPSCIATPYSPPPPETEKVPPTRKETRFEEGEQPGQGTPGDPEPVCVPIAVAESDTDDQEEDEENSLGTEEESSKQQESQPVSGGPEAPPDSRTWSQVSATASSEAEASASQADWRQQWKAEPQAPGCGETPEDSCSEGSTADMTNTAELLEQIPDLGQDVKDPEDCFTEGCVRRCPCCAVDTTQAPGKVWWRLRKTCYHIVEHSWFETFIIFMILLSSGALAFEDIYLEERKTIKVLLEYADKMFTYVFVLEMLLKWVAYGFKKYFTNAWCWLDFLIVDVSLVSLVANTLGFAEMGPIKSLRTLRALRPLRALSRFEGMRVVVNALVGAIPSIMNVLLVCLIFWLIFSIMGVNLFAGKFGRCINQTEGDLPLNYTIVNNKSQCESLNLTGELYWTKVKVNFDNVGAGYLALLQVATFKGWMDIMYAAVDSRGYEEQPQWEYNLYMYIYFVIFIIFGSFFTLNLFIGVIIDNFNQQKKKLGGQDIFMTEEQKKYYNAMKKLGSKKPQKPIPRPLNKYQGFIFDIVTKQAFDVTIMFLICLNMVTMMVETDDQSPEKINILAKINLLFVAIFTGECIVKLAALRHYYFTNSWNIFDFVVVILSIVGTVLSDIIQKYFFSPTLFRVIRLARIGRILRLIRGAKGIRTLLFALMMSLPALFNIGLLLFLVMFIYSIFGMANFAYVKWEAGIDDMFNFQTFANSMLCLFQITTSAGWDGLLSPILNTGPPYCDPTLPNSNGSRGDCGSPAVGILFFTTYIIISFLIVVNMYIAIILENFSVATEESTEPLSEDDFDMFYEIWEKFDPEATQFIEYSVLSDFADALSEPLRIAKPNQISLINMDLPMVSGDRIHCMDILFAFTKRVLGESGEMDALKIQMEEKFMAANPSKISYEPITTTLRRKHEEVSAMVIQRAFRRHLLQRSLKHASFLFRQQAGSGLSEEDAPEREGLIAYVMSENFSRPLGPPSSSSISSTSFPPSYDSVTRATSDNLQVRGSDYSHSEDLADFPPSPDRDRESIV

Cytochrome P450 3A4 = Cytochrome P450 3A4 (Homo sapiens, UniProt P08684); test: Inhibition of CYP3A4 (unknown origin); format: ADME
Cytochrome P450 3A4, sequence (P08684 whole entry): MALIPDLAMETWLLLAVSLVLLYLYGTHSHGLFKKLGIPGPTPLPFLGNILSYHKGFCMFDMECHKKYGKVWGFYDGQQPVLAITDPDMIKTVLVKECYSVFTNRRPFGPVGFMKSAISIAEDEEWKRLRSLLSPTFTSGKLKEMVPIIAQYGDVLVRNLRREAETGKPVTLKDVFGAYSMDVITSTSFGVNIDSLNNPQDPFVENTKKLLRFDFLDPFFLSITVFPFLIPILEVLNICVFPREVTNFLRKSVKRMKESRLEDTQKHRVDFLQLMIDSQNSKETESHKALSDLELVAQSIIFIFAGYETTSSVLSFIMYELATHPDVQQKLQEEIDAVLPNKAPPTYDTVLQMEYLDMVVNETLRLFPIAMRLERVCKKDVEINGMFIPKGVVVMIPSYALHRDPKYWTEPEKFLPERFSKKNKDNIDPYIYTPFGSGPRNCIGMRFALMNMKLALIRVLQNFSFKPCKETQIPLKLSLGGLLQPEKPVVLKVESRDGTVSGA

Cytochrome P450 2D6 = Cytochrome P450 2D6 (Homo sapiens, UniProt P10635); test: Inhibition of CYP2D6 (unknown origin); format: ADME
Cytochrome P450 2D6, sequence (P10635 whole entry): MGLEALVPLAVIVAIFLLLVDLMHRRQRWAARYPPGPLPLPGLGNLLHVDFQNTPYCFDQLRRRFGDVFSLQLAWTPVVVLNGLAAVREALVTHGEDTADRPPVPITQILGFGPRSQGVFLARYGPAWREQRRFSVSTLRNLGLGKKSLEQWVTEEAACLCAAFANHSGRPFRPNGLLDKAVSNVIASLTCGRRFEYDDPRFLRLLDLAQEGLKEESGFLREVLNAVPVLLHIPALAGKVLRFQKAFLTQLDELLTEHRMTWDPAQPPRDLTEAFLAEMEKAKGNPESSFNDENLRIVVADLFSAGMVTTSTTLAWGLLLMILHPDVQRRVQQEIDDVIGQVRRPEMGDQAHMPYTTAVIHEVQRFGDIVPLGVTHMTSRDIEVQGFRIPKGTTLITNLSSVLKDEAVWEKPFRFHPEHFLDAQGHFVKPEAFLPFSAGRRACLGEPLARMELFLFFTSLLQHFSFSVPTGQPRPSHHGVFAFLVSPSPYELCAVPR

Cytochrome P450 2C9 = Cytochrome P450 2C9 (Homo sapiens, UniProt P11712); test: Inhibition of CYP2C9 (unknown origin); format: ADME
Cytochrome P450 2C9, sequence (P11712 whole entry): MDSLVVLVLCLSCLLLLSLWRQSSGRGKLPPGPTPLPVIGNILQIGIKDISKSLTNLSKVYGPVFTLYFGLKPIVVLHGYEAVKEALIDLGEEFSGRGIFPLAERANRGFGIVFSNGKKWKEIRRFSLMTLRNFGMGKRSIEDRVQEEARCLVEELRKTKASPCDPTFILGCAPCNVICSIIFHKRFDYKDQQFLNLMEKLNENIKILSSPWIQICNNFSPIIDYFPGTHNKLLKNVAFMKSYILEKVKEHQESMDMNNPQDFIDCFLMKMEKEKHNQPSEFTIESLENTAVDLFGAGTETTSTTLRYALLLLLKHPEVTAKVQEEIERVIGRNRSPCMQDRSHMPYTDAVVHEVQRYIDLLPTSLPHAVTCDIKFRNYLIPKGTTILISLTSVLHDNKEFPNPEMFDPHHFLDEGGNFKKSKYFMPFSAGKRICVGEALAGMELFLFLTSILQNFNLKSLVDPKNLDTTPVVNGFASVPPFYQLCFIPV

[9] = Clearance in mouse at 2 mg/kg, iv or 10 mg/kg, po; format: ADME, organism-based; conditions: in vivo
[10] = Volume of distribution in mouse at 2 mg/kg, iv or 10 mg/kg, po; format: ADME, organism-based; conditions: in vivo
[11] = Half life in mouse at 2 mg/kg, iv or 10 mg/kg, po; format: ADME, organism-based; conditions: in vivo
[12] = Oral bioavailability in mouse at 10 mg/kg; format: ADME, organism-based; conditions: in vivo
[13] = Cmax in mouse at 2 mg/kg, iv or 10 mg/kg, po; format: ADME, organism-based; conditions: in vivo
[14] = Protein binding in mouse plasma; format: ADME, cell-free; conditions: read-out: PPB (converted)

Row | EC50 [1] | Activity [2] | EC50 [3] | Activity [4] | EC50 [5] | Activity [6] | Structure (SMILES) | further results
1 | 0.121 µM | 66% | 0.032 µM | 65% | 1.13 µM | 30% | CCOc1ccc(Cl)c(-c2ccc(OCCCC(=O)O)cc2)c1 | –
2 | 0.077 µM | – | 0.031 µM | – | 1.37 µM | – | O=C(O)CCC1Cc2cc(-c3cc(OC(F)(F)F)ccc3F)ccc2O1 (stereo in doubt; 44) [listing 1 of 2 here] | –
3 | > 9.95 µM | – | > 9.95 µM | – | > 9.95 µM | – | O=C(O)CCCOc1ccc(-c2cccc(OCc3ccccc3)c2)cc1 | –
4 | 0.153 µM | 65% | 0.035 µM | 66% | 2.5 µM | 40% | O=C(O)CCc1cc2cc(-c3cccc(OC4CCC4)c3)ccc2o1 | –
5 | 0.02 µM | 69% | 0.007 µM | 75% | 5.41 µM | 46% | O=C(O)CCCOc1c(F)cc(-c2cc(OC(F)(F)F)ccc2F)cc1F | –
6 | > 9.95 µM | – | > 9.95 µM | – | > 9.95 µM | – | O=C(O)c1cc2cc(-c3cc(OC(F)(F)F)ccc3F)ccc2o1 | –
7 | 0.819 µM | 24% | 0.074 µM | 57% | > 9.95 µM | – | CC(CC(=O)O)c1cc2cc(-c3cc(OC(F)(F)F)ccc3F)ccc2o1 (racemic) | –
8 | > 9.95 µM | – | 0.316 µM | 28% | > 9.95 µM | – | Fc1ccc(OC(F)(F)F)cc1-c1ccc2oc(CCc3nn[nH]n3)cc2c1 | –
9 | – | 101% | – | 68% | – | 24% | O=C(O)CCC1Cc2cc(-c3cc(OC(F)(F)F)ccc3F)ccc2O1 (stereo in doubt; 44) [listing 2 of 2 here] | –
10 | 0.149 µM | 87% | 0.047 µM | 86% | > 9.95 µM | – | Cc1cc(-c2cc(OC(F)(F)F)ccc2F)cc(C)c1OCCCC(=O)O | –
11 | 0.198 µM | 80% | 0.034 µM | 70% | 3.35 µM | 67% | O=C(O)CCCOc1ccc(-c2cc(Oc3cccc(F)c3)ccc2Cl)cc1 | –
12 | 0.1 µM | 71% | 0.029 µM | 80% | 3.59 µM | 91% | O=C(O)CCCOc1ccc(-c2cc(Oc3ccccc3)ccc2F)cc1 | –
13 | 0.946 µM | 16% | 0.432 µM | 34% | 4.22 µM | 91% | O=C(O)CCCOc1ccc(-c2cc(OC(F)(F)F)ccc2F)cc1 | –
14 | 0.17 µM | 46% | 0.067 µM | 58% | 6.8 µM | 54% | O=C(O)CCCOc1ccc(-c2cccc(Oc3ccccc3)c2)cc1 | –
15 | 0.068 µM | 51% | 0.028 µM | 69% | 2.96 µM | 51% | Cc1cc(OC2CCC2)cc(-c2ccc3oc(CCC(=O)O)cc3c2)c1 | –
16 | 3 µM | 19% | 1.87 µM | 20% | > 9.95 µM | – | O=C(O)CCCOc1ccc(-c2ccccc2OC(F)(F)F)cc1 | –
17 | 0.06 µM | 107% | 0.027 µM | 98% | 9.46 µM | 110% | O=C(O)CCCOc1ccc(-c2cc(Oc3cccc(F)c3)ccc2F)cc1 | –
18 | 0.094 µM | 61% | 0.016 µM | 73% | > 9.95 µM | – | Cc1cc(-c2cc(OC(F)(F)F)ccc2Cl)cc(C)c1OCCCC(=O)O | IC50 [7]: 12.8 µM; IC50 [8]: 9.13 µM; IC50 (Cytochrome P450 3A4): 3.28 µM; IC50 (Cytochrome P450 2D6): > 50 µM; IC50 (Cytochrome P450 2C9): > 50 µM; clearance [9]: 4.9 mL/min/kg; Vd [10]: 0.95 L/kg; half-life [11]: 5.5 h; bioavailability [12]: 41%; Cmax [13]: 6.1 µM; fraction unbound [14]: 0.002

Row | EC50 [1] | Activity [2] | EC50 [3] | Activity [4] | EC50 [5] | Activity [6] | Structure (SMILES) | further results
19 | 0.254 µM | 32% | 0.078 µM | 29% | > 9.95 µM | – | Cc1cc(OCCCC(=O)O)ccc1-c1cc(OC(F)(F)F)ccc1Cl | –
20 | 0.102 µM | 69% | 0.012 µM | 76% | > 9.95 µM | – | O=C(O)CCc1cc2cc(-c3cc(OC(F)(F)F)ccc3Cl)ccc2o1 | –
21 | 8.17 µM | 31% | 2.19 µM | 15% | > 9.95 µM | – | O=C(O)CCCOc1ccc(-c2ccccc2C(F)(F)F)cc1 | –
22 | 0.544 µM | 48% | 0.326 µM | 59% | 1.39 µM | 43% | O=C(O)CCc1cc2cc(-c3cccc(OC(F)(F)F)c3)ccc2o1 | –
23 | – | 49% | – | 65% | – | 91% | O=C(O)CCC1Cc2cc(-c3cc(OC(F)(F)F)ccc3F)ccc2O1 (stereo in doubt; 45) [listing 1 of 2 here] | –
24 | 0.188 µM | 50% | 0.064 µM | 55% | > 9.95 µM | – | O=C(O)CCc1cc2cc(-c3cc(Cl)cc(OC4CCC4)c3)ccc2o1 | –
25 | 0.182 µM | 77% | 0.066 µM | 83% | > 9.95 µM | – | Cc1ccc(Oc2cccc(-c3ccc(OCCCC(=O)O)cc3)c2)cc1 | –
26 | 0.097 µM | 92% | 0.022 µM | 75% | > 9.95 µM | – | O=C(O)CCc1cc2cc(-c3cc(C(=O)C4CC4)ccc3F)ccc2o1 | –
27 | 0.185 µM | 57% | 0.131 µM | 62% | 6.72 µM | 37% | Cc1cc(-c2cc(OC(F)(F)F)ccc2Cl)ccc1OCCCC(=O)O | –
28 | 0.088 µM | 58% | 0.034 µM | 77% | > 9.95 µM | – | O=C(O)CCCOc1ccc(-c2cc(Oc3cccnc3)ccc2Cl)cc1 | –
29 | 0.066 µM | 68% | 0.032 µM | 61% | > 9.95 µM | – | O=C(O)CCCOc1ccc(-c2cc(OC3CC3)ccc2F)cc1 | –
30 | 0.083 µM | 10% | 0.07 µM | 44% | > 9.95 µM | – | CC(Cc1cc2cc(-c3cc(OC(F)(F)F)ccc3F)ccc2o1)C(=O)O (racemic) | –
31 | 0.186 µM | 60% | 0.036 µM | 66% | > 9.95 µM | – | O=C(O)CCCOc1ccc(-c2cc(OC(F)(F)F)ccc2Cl)c(F)c1 | –
32 | 0.137 µM | – | 0.106 µM | – | 1.35 µM | – | O=C(O)CCC1Cc2cc(-c3cc(OC(F)(F)F)ccc3F)ccc2O1 (stereo in doubt; 45) [listing 2 of 2 here] | –
33 | 0.498 µM | 19% | 0.264 µM | 20% | 6.31 µM | 101% | COc1cccc(Oc2cccc(-c3ccc(OCCCC(=O)O)cc3)c2)c1 | –
34 | 0.546 µM | 25% | 0.418 µM | 21% | > 9.95 µM | – | O=C(O)CCCOc1ccc(-c2ccccc2Oc2ccccc2)cc1 | –
35 | 0.308 µM | 52% | 0.079 µM | 37% | 9.26 µM | 34% | Cc1cc(-c2cc(OC(F)(F)F)ccc2F)ccc1OCCCC(=O)O | –
36 | 0.29 µM | 71% | 0.14 µM | 58% | 3.19 µM | 22% | CCOc1ccc(F)c(-c2ccc(OCCCC(=O)O)cc2)c1 | –
